These results are taken from patent publication US6828332B1, “Piperidine derivatives as reuptake inhibitors” (Eli Lilly and Company, priority 1999, dated 2004).

SMILES strings stand for the structures. Counter-ions that a name gives are not always drawn.

On to `O=C(C1CCCCC1)C(CCN1CC=C(c2ccc3ccsc3c2)CC1)c1ccccn1` (centres unmarked) (as salt: oxalate), for which the melting point is 164 to 169 °C.

`O=C(C1CCCCC1)C(CCN1CC=C(c2ccc3sccc3c2)CC1)c1ccccn1` (centres unmarked) (as salt: oxalate): the melting point was 194 to 196 °C.

`O=C(C1CCCCC1)C(CCN1CC=C(c2cc3ccccc3s2)CC1)c1ccccn1` (centres unmarked) (as salt: oxalate) returned a melting point of 228 to 230 °C. Under `OC(C1CCCCC1)C(CCN1CC=C(c2ccc3ccsc3c2)CC1)c1ccccn1` (centres unmarked) (as salt: oxalate) stands 94 to 98 °C. Under `O=C(C1CCCCC1)C(CCN1CC=C(c2csc3ccccc23)CC1)c1ccccn1` (centres unmarked) (as salt: oxalate) stands 208 to 210 °C; under `OC(C1CCCCC1)C(CCN1CC=C(c2csc3ccccc23)CC1)c1ccccn1` (centres unmarked) (as salt: oxalate), 100 to 107 °C; under `OC(C1CCCCC1)C(CCN1CC=C(c2ccc3sccc3c2)CC1)c1ccccn1` (single isomer, unassigned) (as salt: oxalate), 190 to 192 °C. Under `OC(C1CCCCC1)C(CCN1CC=C(c2cc3ccccc3s2)CC1)c1ccccn1` (single isomer, unassigned) (as salt: oxalate) stands 210 to 212 °C.
